We go through nine compounds from PubChem BioAssay (NCI).

Among the test systems are DMS 273 small cell lung; LXFL 529 NSCLC; M19-MEL melanoma; KM20L2 colon; DLD-1 colon; XF 498 CNS; P388/ADR leukemia; SN12K1 renal; P388 leukemia; RXF-631 renal.
Experiment in all cases: NCI tumour cell line growth inhibition, 48 h

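Dose response: 5 concentrations. Exposure: 48 h. Format: 96-well plates. Endpoint: linear interpolation; highest concentration if not reached. The concentration for full growth arrest is given as TGI.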

In the case of `CCC1=C(C(C)=O)[C@@H]2CCCCC[C@@H](C(=O)OC)C2C1=O` (some centres not stated), the TGI in the assay with DMS 273 small cell lung, in the assay on LXFL 529 NSCLC, with M19-MEL melanoma, in the assay on KM20L2 colon, in the assay on DLD-1 colon and in the assay on XF 498 CNS was > 100 µM throughout.
Regarding `Cc1cc(C)nc(NS(=O)(=O)c2ccc(Nc3c4ccccc4nc4c(C(=O)N5CCN(CCOS(C)(=O)=O)CC5)cccc34)cc2)n1`, the TGI with M19-MEL melanoma, in the assay on KM20L2 colon, in the assay on DLD-1 colon and in the assay with XF 498 CNS was > 100 µM throughout.
In the case of `CCCCOc1ccc(OCCCCCCCCCC[N+](C)(C)C)cc1`, the TGI in the assay on DMS 273 small cell lung was found to be 4.25 µM; with P388/ADR leukemia it was 17.8 µM; in the assay with KM20L2 colon it was 3.87 µM; in the assay on SN12K1 renal, 8.54 µM; in the assay on DLD-1 colon, 21.5 µM; in the assay on P388 leukemia, 3.06 µM. The compound further registered a TGI in the assay with XF 498 CNS of 4.57 µM.
As to `CC(C)N1CC2CC(CN(C(=O)c3ccccc3)C2)C1`, the TGI in the assay with DMS 273 small cell lung, in the assay on LXFL 529 NSCLC, in the assay on M19-MEL melanoma, in the assay on KM20L2 colon, with RXF-631 renal and in the assay with XF 498 CNS was > 100 µM each time.
For the compound `CN(C)CCNC(=O)c1cc(Cl)cc2ccc(-c3ccccc3)nc12`, the TGI in the assay with DMS 273 small cell lung came to 7.48 µM; in the assay on M19-MEL melanoma, 11.4 µM; in the assay with P388/ADR leukemia, 7.95 µM; with KM20L2 colon it was 13.1 µM; in the assay with SN12K1 renal, 5.81 µM; in the assay with DLD-1 colon, 12.9 µM. Also, the TGI in the assay on XF 498 CNS came out at 5.04 µM.
For `NCCCCNCCCNC(=O)c1nc(-c2nc(CCN)sc2Cl)sc1Cl`, the TGI with DMS 273 small cell lung was > 100 µM; with LXFL 529 NSCLC, 11.1 µM; in the assay with M19-MEL melanoma it was > 100 µM; in the assay on KM20L2 colon, > 100 µM; in the assay on DLD-1 colon, > 100 µM; in the assay with XF 498 CNS, > 100 µM.
As for `CSc1cc(=O)n2c3ccccc3c3ccnc1c32`, the TGI in the assay on DMS 273 small cell lung, with M19-MEL melanoma, in the assay on P388/ADR leukemia, in the assay on KM20L2 colon, with SN12K1 renal and with DLD-1 colon was > 100 µM each time. For the same compound, the TGI in the assay with P388 leukemia was > 100 µM.
Consider `COC(=O)[C@@H]1CCCCC[C@H]2C(CO)=C(C)C(=O)C12` (some centres not stated), for which the TGI with DMS 273 small cell lung, with LXFL 529 NSCLC, in the assay on M19-MEL melanoma, in the assay on KM20L2 colon, with DLD-1 colon and in the assay on XF 498 CNS was > 100 µM throughout.
As for `O=S(=O)(O)c1ccc(N=Nc2ccc(N=Nc3ccc(/C=C/c4ccc(N=[N+]([O-])c5ccc(/C=C/c6ccc(N=Nc7ccc(N=Nc8ccc(S(=O)(=O)O)cc8)cc7)cc6S(=O)(=O)O)c(S(=O)(=O)O)c5)cc4S(=O)(=O)O)c(S(=O)(=O)O)c3)cc2)cc1`, the TGI in the assay with DMS 273 small cell lung, in the assay with M19-MEL melanoma, in the assay on P388/ADR leukemia, in the assay with KM20L2 colon, in the assay with SN12K1 renal and with DLD-1 colon was > 100 µM throughout. Also, the TGI in the assay with P388 leukemia and with XF 498 CNS was > 100 µM each time.
